For seven compounds, TGI and GI50 results are on record in PubChem BioAssay (NCI).

Holding throughout (experiment): NCI tumour cell line growth inhibition, 48 h
Assay [1] has as its system P388/ADR leukemia.
Assay [2] deals with SNB-78 CNS.
In assay [3] the test system is KM20L2 colon.
Assay [4] relates to DLD-1 colon.
For assay [5], the system named is HOP-18 NSCLC.
In assay [6] the test system is SN12K1 renal.
Assay [7] concerns DMS 114 small cell lung.
Assay [8] concerns LXFL 529 NSCLC.
In assay [9] the test system is M19-MEL melanoma.
Assay [10] relates to RXF-631 renal.
For assay [11], the system named is XF 498 CNS.

“And” between values parts separate entries of the source, which are not always exact repeats. Equal entries are not always repeated.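 A five-concentration, 48-hour dose response in 96-well plates underlies each endpoint, interpolated linearly between surrounding concentrations. Abbreviation: GI50, concentration required for 50% inhibition of growth. Definition used: TGI = concentration required for complete inhibition of growth.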

Regarding `CCCCCCCCCCCC1=C(O)C(=O)C=C(O)C1=O`, the TGI was found to be 250 µM in assay [1]; 149 µM in assay [2]; 35.4 µM in [3]; 51.9 µM in assay [4]; 14.6 µM in assay [5]; 30.3 µM in [6]. This compound also yielded a TGI in [7] of 11.9 µM.

With `COc1ccc(Sc2ccccc2[N+](=O)[O-])cc1`, the TGI in assay [8] was above 100 µM; in assay [2] it was 98.4 µM; in assay [4], above 100 µM; in assay [9] it was above 100 µM; in [10] it was above 100 µM; in assay [5], above 100 µM.

As to `Cn1c(=O)c(C#N)c(O)c2cc3ccccc3nc21`, the TGI in assay [8], in assay [2], in assay [11], in assay [4], in [9] and in assay [5] was above 100 µM each time. In [7], the TGI is above 100 µM.

With `NS(=O)(=O)c1cc2c(cc1Cl)NC(C(=O)NNC(=O)c1ccncc1)=NS2(=O)=O`, the TGI in assay [8], in [11], in assay [3], in [4], in assay [9] and in assay [5] was above 100 µM throughout. The TGI in assay [7] is above 100 µM.

Take `Cc1c(N(Cc2ccccc2)Cc2ccccc2)nc(S(C)(=O)=O)nc1S(C)(=O)=O`: the TGI stood at 3.45 µM in assay [8]; 4.81 µM in [2]; 3.16 µM in [11]; 3.28 µM in [3]; 3.59 µM in [4]; 2.89 µM in assay [9]. Also, the TGI is 17.3 µM in assay [5] and 3.24 µM in assay [7].

As to `Cc1ccc(C)c(C(=O)CC2OC(O)C(Cl)C2Cl)c1` (stereo not drawn), the TGI in [8] is 32.5 µM; in assay [2], above 100 µM; in assay [11], above 100 µM; in assay [3] it was above 100 µM; in [4], 34.4 µM; in [9], above 100 µM. The TGI in assay [5] and in assay [7] was above 100 µM throughout.

For the compound `COC1=C(C)C(=O)C2=C(C1=O)C1C3CC4=C(C(=O)C(OC)=C(C)C4=O)C(CNC(=O)C(C)=O)N3C(C#N)C(C2)N1C` (stereo not drawn), the TGI in [1] is 0.349 µM; in assay [3], 0.246 µM and 1.03 µM; in assay [4] it was 0.278 µM. The GI50 was 57.9 pM in assay [2]; 0.00267 µM in assay [3]; 40.4 pM in [4]; 94.6 pM in assay [9]; 0.000385 µM in assay [10]; 0.000212 µM in [5]. Moreover, the GI50 in [7] is 21.5 pM.
